Columns and labels:
[1] = target: CDK7/cyclinH/MAT1 complex (Homo sapiens, UniProt P50613); assay: In-vitro enzymatic inhibitory activity testing, CDK7 inhibition assay (Caliper EZ Reader II); format: biochemical; settings: CDK7/cyclinH/MAT1 6 nM, 180 min at 27° C.
Description: (§1) CDK12/CyclinK was diluted in an assay buffer (80 mM MES PH 6.5, 0.01% Tween 20, 50 ug/mL BSA, 10 mM MgCl2) to afford a corresponding enzyme solution with the 2.4 concentration. A compound was dissolved in dimethyl sulfoxide (DMSO) at a concentration of 10 mM. […] 2 ul of a test compound solution was mixed with 5 ul of the enzyme solution; after incubation for 10 min, 5 ul of the polypeptide substrate and ATP mixed solution was added; incubation was carried out for 180 min at 27° C.; and then, the reaction was terminated by adding 4 uL of EDTA with a concentration of 120 mM to each sample. […] A CDK9/cyclinT1 complex (8 nM) and a “5-FAM-CDK9tide” peptide substrate (2 IM, synthetic fluorophore-labeled peptide with the following sequence: 5-FAM-GSRTPMY-NH2, wherein 5-FAM was as defined above and NH2 represented C-terminal amide) were used for a CDK9 inhibition assay. […] A CDK2/cyclinE1 complex (0.5 nM) and “5-FAM-CDK7tide” (2 μM) as defined above were used for CDK2 inhibition assay.
(§2) A reaction mixture was analyzed on Caliper EZ Reader II by electrophoretic separation of a fluorogenic substrate and a phosphorylated product. Data were calculated by using GraphPad Prism version 6.0, and IC50 values were adjusted and obtained by using a nonlinear regression model of a dose response curve.

CDK2/cyclinE1 complex = CDK2/cyclinE1 complex (Homo sapiens, UniProt P24941); assay: In-vitro enzymatic inhibitory activity testing, CDK2 inhibition assay (Caliper EZ Reader II); format: biochemical; settings: CDK2/cyclinE1 0.5 nM, 180 min at 27° C.
Description: CDK12/CyclinK was diluted in an assay buffer (80 mM MES PH 6.5, 0.01% Tween 20, 50 ug/mL BSA, 10 mM MgCl2) to afford a corresponding enzyme solution with the 2.4 concentration. […] A CDK9/cyclinT1 complex (8 nM) and a “5-FAM-CDK9tide” peptide substrate (2 IM, synthetic fluorophore-labeled peptide with the following sequence: 5-FAM-GSRTPMY-NH2, wherein 5-FAM was as defined above and NH2 represented C-terminal amide) were used for a CDK9 inhibition assay. […] A CDK2/cyclinE1 complex (0.5 nM) and “5-FAM-CDK7tide” (2 μM) as defined above were used for CDK2 inhibition assay.
as §2

CDK9/cyclinT1 complex = CDK9/cyclinT1 complex (Homo sapiens, UniProt P50750); assay: In-vitro enzymatic inhibitory activity testing, CDK9 inhibition assay (Caliper EZ Reader II); format: biochemical; settings: CDK9/cyclinT1 8 nM, 180 min at 27° C.
Description: as §1, §2

[2] = target: T1, CDK12 (aa686-1082)/cyclinK complex (Homo sapiens, UniProt Q9NYV4); assay: In-vitro enzymatic inhibitory activity testing, CDK12 inhibition assay (Caliper EZ Reader II); format: biochemical; settings: CDK12/cyclinK 50 nM, 180 min at 27° C.; read-out: CDK12 IC50
T1 construct: A CDK12 (aa686-1082)/cyclinK complex (50 nM)
Description: An assay was carried out in a U-bottom 384-well plate (coming, 4512#), and the reaction temperature was 27° C. CDK7/CyclinH was diluted in an assay buffer (20 mM MES PH 6.75, 0.01% Tween 20, 50 ug/mL BSA, 6 mM MgCl2) to afford a corresponding enzyme solution with the 2.4× concentration. CDK2/CyclinE1 was diluted in an assay buffer (20 mM MES PH 6.75, 0.01% Tween 20, 50 ug/mL BSA, 6 mM MgCl2) to afford a corresponding enzyme solution with the 2.4× concentration. CDK9/CyclinT1 was diluted in an assay buffer (20 mM MES PH 6.75, 0.01% Tween 20, 50 ug/mL BSA, 10 mM MgCl2) to afford a corresponding enzyme solution with the 2.4× concentration. CDK12/CyclinK was diluted in an assay buffer (80 mM MES PH 6.5, 0.01% Tween 20, 50 ug/mL BSA, 10 mM MgCl2) to afford a corresponding enzyme solution with the 2.4 concentration. A compound was dissolved in dimethyl sulfoxide (DMSO) at a concentration of 10 mM. During use, the compound was diluted with DMSO into 10 concentration gradients from 25 nM to 500 uM, and respectively diluted by 8.3 folds in the assay buffer to afford a compound solution with a 6× concentration. A polypeptide substrate and ATP were diluted in the assay buffer to afford a polypeptide substrate and ATP mixed solution with a 2.4× concentration. 2 ul of a test compound solution was mixed with 5 ul of the enzyme solution; after incubation for 10 min, 5 ul of the polypeptide substrate and ATP mixed solution was added; incubation was carried out for 180 min at 27° C.; and then, the reaction was terminated by adding 4 uL of EDTA with a concentration of 120 mM to each sample. […]. Specifically, a CDK7/cyclinH/MAT1 complex (6 nM) and a “5-FAMCD K 7 tide” peptide substrate (2 μM, synthetic fluorophore-labeled peptide with the following sequence: 5-FAM-[…], wherein “5-FAM” refers to 5-carboxyfluorescein) were used for a CDK7 inhibition assay. A CDK9/cyclinT1 complex (8 nM) and a “5-FAM-CDK9tide” peptide substrate (2 IM, synthetic fluorophore-labeled peptide with the following sequence: 5-FAM-GSRTPMY-NH2, wherein 5-FAM was as defined above and NH2 represented C-terminal amide) were used for a CDK9 inhibition assay. A CDK12 (aa686-1082)/cyclinK complex (50 nM) and “5-FAM-CDK9tide” (2 μM) as defined above were used for a CDK12 inhibition assay. A CDK2/cyclinE1 complex (0.5 nM) and “5-FAM-CDK7tide” (2 μM) as defined above were used for CDK2 inhibition assay.
as §2

[3] = system: human breast cancer cells HCC70; assay: Cell biological activity detection (CyQuant, 72 hours), HCC70; format: cell-based; settings: incubation for 72 hours
Description: (§3) A2780 and HCC70 cells were subjected to trypsin digestion treatment, and cell suspensions were respectively transferred to 15 mL centrifuge tubes and centrifuged for 5 min at […]) rpm; supernatant was discarded, and resuspension was carried out in a fresh medium (RPMI 1640+10% FBS), after counting, cells were seeded into a 384-well plate at 2000/well (50 μL of 1640+10% FBS medium was added to the 2nd column and the 23rd column of the 384-well plate, and 50 μL of DPBS was added to the surrounding wells). Incubation was carried out overnight in an incubator (37° C., 5% CO2).
(§4) The compound was added to the well plates the next day. The compound had the highest concentration of 10 μM and was diluted at 1:4, and there were a total of 9 concentrations; and a positive compound Paclitaxel had the highest concentration of 1 μM and was diluted at 1:3, and there were a total of 9 concentrations. The DMSO content in each well was unified to 0.2%. The cell plates were centrifuged for 30 seconds at 800 rpm and placed in an incubator (37° C., 5% CO2) for incubation for 72 hours. On the fourth day, a Cyquant reagent (3×) was formulated according to kit instructions, and formulation was carried out for each 384-well plate according to the following proportions: DPBS 11.568 mL, CyQuant®? Direct nucleic acid stain 72 μL, and CyQuant® Direct background suppressor 360 μL. After uniform mixing, the reagent was placed at room temperature for further use. The cell plates were taken out and equilibrated for 30 min at room temperature, and 25 μL of the Cyquant reagent (3×) per well was dispensed into the cells of the 384-well plates by Multi-drop, and incubation was carried out for more than 60 minutes at 37° C. Acumen plate reading (Acumen setting: an excitation wavelength of 488 nm). IC50 results were analyzed by XLFIT5 from IDBS Company.

ovarian cancer A2780 = assay: Cell biological activity detection (CyQuant, 72 hours), A2780; format: cell-based, human; settings: A2780 cells, incubation for 72 hours
Description: as §3, §4

T1 sequence (Q9NYV4 686-1082, species assumed): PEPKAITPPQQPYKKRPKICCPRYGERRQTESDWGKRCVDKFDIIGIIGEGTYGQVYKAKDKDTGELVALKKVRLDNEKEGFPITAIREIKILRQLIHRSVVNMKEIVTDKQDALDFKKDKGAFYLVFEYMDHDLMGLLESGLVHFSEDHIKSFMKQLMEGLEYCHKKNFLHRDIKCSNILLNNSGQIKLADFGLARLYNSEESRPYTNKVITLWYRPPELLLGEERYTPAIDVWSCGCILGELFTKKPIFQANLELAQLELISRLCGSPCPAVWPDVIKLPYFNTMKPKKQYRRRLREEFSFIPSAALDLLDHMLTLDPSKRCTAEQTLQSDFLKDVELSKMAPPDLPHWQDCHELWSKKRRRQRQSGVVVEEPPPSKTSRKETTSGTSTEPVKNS
T1 sequence (O75909 whole entry partner, species assumed, the tested form may be a part): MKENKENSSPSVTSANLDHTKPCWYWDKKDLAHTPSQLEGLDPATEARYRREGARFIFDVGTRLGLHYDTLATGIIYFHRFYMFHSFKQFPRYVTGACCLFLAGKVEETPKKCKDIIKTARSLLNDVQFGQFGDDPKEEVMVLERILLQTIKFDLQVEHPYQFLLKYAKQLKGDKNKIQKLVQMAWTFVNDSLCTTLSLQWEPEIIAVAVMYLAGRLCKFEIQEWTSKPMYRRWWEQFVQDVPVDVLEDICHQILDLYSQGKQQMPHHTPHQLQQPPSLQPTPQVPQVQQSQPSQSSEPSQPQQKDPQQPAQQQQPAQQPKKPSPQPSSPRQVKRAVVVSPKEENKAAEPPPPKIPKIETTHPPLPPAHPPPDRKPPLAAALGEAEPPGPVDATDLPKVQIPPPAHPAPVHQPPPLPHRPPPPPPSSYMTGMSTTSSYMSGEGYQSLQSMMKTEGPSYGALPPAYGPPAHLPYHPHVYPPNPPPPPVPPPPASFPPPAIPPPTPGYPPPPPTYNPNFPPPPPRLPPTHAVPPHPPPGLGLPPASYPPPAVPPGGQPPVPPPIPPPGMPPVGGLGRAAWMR
Sequence of CDK9/cyclinT1 complex (P50750 whole entry, species assumed): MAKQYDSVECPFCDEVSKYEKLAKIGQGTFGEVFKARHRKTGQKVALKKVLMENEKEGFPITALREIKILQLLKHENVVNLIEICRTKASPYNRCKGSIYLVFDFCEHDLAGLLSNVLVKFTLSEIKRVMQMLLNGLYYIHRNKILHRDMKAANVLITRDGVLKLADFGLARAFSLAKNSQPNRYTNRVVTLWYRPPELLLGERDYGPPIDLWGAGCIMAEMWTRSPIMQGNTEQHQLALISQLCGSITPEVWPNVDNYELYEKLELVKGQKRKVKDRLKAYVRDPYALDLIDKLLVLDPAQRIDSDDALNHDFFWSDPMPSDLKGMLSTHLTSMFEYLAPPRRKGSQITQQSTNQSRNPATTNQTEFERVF
Sequence of CDK9/cyclinT1 complex (O60563 whole entry partner, species assumed): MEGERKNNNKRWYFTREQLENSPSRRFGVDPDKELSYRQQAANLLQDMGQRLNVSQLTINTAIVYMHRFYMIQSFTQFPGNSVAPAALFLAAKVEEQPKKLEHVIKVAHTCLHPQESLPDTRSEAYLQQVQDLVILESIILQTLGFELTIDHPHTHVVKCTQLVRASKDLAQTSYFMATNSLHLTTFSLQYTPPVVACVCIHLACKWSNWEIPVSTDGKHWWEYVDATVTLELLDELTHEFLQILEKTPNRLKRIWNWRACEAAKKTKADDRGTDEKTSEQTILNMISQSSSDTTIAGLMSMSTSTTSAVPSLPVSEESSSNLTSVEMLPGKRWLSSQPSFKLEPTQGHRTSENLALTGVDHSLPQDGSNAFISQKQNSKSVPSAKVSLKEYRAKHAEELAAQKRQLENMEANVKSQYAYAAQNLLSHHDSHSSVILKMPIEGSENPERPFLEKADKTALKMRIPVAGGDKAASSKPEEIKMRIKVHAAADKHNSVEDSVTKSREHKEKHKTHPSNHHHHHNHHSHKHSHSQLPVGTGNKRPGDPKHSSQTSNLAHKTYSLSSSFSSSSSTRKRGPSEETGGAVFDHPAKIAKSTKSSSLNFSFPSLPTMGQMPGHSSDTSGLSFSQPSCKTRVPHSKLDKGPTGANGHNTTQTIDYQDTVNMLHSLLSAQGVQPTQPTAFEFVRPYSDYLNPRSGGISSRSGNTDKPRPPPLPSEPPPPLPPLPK
Sequence of CDK7/cyclinH/MAT1 complex (P50613 whole entry, species assumed): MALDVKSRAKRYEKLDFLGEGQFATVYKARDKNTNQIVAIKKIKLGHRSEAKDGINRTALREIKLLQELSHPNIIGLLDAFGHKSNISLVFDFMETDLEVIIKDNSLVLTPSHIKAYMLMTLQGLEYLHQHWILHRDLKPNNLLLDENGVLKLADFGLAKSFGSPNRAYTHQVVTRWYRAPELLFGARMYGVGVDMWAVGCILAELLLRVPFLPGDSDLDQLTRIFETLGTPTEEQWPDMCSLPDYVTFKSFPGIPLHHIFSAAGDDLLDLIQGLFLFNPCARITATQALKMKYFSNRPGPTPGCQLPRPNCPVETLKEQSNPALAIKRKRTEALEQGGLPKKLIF
Sequence of CDK7/cyclinH/MAT1 complex (P51946 whole entry partner, species assumed): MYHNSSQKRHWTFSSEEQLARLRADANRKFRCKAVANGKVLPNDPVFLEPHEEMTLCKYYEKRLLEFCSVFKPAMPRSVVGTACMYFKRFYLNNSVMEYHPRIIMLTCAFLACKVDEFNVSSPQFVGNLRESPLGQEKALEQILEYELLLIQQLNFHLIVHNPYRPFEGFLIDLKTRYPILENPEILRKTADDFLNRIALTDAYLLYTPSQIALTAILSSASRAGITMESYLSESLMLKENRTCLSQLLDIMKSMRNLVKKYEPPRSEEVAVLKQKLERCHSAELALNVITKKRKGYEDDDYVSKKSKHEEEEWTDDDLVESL
Sequence of CDK7/cyclinH/MAT1 complex (P51948 whole entry partner, species assumed): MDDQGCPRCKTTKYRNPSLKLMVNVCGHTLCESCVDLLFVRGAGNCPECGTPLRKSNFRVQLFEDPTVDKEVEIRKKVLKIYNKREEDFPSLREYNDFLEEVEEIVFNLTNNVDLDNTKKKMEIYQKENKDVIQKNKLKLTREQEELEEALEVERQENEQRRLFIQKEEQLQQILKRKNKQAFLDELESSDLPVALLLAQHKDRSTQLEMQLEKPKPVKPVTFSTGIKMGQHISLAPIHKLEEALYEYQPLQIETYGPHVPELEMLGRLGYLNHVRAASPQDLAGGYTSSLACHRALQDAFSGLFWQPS

| Structure (SMILES) | IC50 [1] | IC50 (CDK2/cyclinE1 complex) | IC50 (CDK9/cyclinT1 complex) | IC50 [2] | IC50 (ovarian cancer A2780) | IC50 (ovarian cancer A2780; Homo sapiens, A2780, 72 h) | IC50 [3] | IC50 ([3]; Homo sapiens, HCC70, 72 h) |
| --- | --- | --- | --- | --- | --- | --- | --- | --- |
| FC(F)(F)c1cnc(NC2CCCNCC2)nc1-c1c[nH]c2nc(N3CCOCC3)ccc12 (single isomer, unassigned) [Compound 49] | 0.2 to 5 µM | 5 to 50 µM | > 50 µM | 5 to 50 µM | 0.2 to 5 µM | – | 0.2 to 5 µM | – |
| FC(F)(F)c1cnc(NC2CCC3CNCC32)nc1-c1c[nH]c2nc(N3CCOCC3)ccc12 (single isomer, unassigned) [Compound 57] | 0.2 to 5 µM | > 50 µM | > 50 µM | > 50 µM | 0.2 to 5 µM | – | 0.2 to 5 µM | – |
| CC1(C)COCC(Nc2ncc(C(F)(F)F)c(-c3c[nH]c4nc(C#N)ccc34)n2)CN1 (single isomer, unassigned) [Compound 63] | 0.02 to 0.2 µM | > 50 µM | > 50 µM | 5 to 50 µM | – | 0.2 to 5 µM | – | 0.2 to 5 µM |
| CC1(C)COCC(Nc2ncc(C(F)(F)F)c(-c3c[nH]c4c(P(C)(C)=O)cccc34)n2)CN1 (single isomer, unassigned) [Compound 92, (3-(2-((3,3-dimethyl-1,4-oxazepan-6-yl)amino)-5-(trifluoromethyl)pyrimidin-4-yl)-1H-indole-7-yl)dimethylphosphine oxide] | < 0.02 µM | 5 to 50 µM | 5 to 50 µM | 5 to 50 µM | < 0.02 µM | – | 0.02 to 0.2 µM | – |
| CP(C)(=O)c1cccc2c(-c3nc(NC4CCC5(CCNC5)C4)ncc3C(F)(F)F)c[nH]c12 (single isomer, unassigned) [Compound 98] | < 0.02 µM | 0.2 to 5 µM | 5 to 50 µM | 5 to 50 µM | – | < 0.02 µM | – | < 0.02 µM |
| CP(C)(=O)c1cccc2c(-c3nc(NC4CCC5(CCNC5)C4)ncc3C(F)(F)F)c[nH]c12 (single isomer, unassigned) [Compound 100] | < 0.02 µM | 0.2 to 5 µM | 5 to 50 µM | 0.2 to 5 µM | < 0.02 µM | – | < 0.02 µM | – |
| CP(C)(=O)c1cccc2c(-c3nc(NC4CC45CCNC5)ncc3C(F)(F)F)c[nH]c12 (single isomer, unassigned) [Compound 110] | < 0.02 µM | 5 to 50 µM | > 50 µM | 5 to 50 µM | < 0.02 µM | – | 0.02 to 0.2 µM | – |
| CP(C)(=O)c1cccc2c(-c3nc(NCC4(O)CCOC4)ncc3C(F)(F)F)c[nH]c12 (single isomer, unassigned) [Compound 122] | 0.02 to 0.2 µM | 5 to 50 µM | > 50 µM | > 50 µM | 0.2 to 5 µM | – | 0.02 to 0.2 µM | – |

Further lines, with some results ahead:

| IC50 [1] | IC50 (CDK2/cyclinE1 complex) | IC50 (CDK9/cyclinT1 complex) | IC50 [2] | IC50 (ovarian cancer A2780) | IC50 (ovarian cancer A2780; Homo sapiens, A2780, 72 h) | Structure (SMILES) | IC50 [3] | IC50 ([3]; Homo sapiens, HCC70, 72 h) |
| --- | --- | --- | --- | --- | --- | --- | --- | --- |
| 0.02 to 0.2 µM | > 50 µM | > 50 µM | 5 to 50 µM | – | 0.2 to 5 µM | CC1(C)COC[C@@H](Nc2ncc(C(F)(F)F)c(-c3c[nH]c4nc(C#N)ccc34)n2)CN1 (single isomer, unassigned) [Compound 64] | – | 0.2 to 5 µM |
| < 0.02 µM | 0.2 to 5 µM | 5 to 50 µM | 0.2 to 5 µM | – | < 0.02 µM | CP(C)(=O)c1cccc2c(-c3nc(NC4CC45CCNC5)ncc3C(F)(F)F)c[nH]c12 (single isomer, unassigned) [Compound 108] | – | < 0.02 µM |
| 0.02 to 0.2 µM | 5 to 50 µM | > 50 µM | > 50 µM | 0.02 to 0.2 µM | – | CP(C)(=O)c1cccc2c(-c3nc(NC4CC45CCNC5)ncc3C(F)(F)F)c[nH]c12 (single isomer, unassigned) [Compound 109] | 0.02 to 0.2 µM | – |
| 0.02 to 0.2 µM | 5 to 50 µM | > 50 µM | > 50 µM | < 0.02 µM | – | CP(C)(=O)c1cccc2c(-c3nc(NC4CC45CCNC5)ncc3C(F)(F)F)c[nH]c12 (single isomer, unassigned) [Compound 111] | 0.02 to 0.2 µM | – |
| 0.02 to 0.2 µM | 5 to 50 µM | > 50 µM | > 50 µM | – | 0.2 to 5 µM | CP(C)(=O)c1cccc2c(-c3nc(NCC4(O)CCOC4)ncc3C(F)(F)F)c[nH]c12 (single isomer, unassigned) [Compound 121] | – | 0.02 to 0.2 µM |

From patent US20240124504A1, “AROMATIC HETEROCYCLIC COMPOUND, AND PHARMACEUTICAL COMPOSITION AND APPLICATION THEREOF” (GT APEIRON THERAPEUTICS LIMITED, priority 2020, published 2024)
